We go through eleven compounds from publication PMC7557147 (Biochemical Journal, 2020).

Molecules are shown by their SMILES.

Experiment [1] deals with T1, TgAPN2 (Toxoplasma gondii, UniProt S8G5K8, N1303Q/N840Q). The class given is biochemical, Toxoplasma gondii ME49. Conditions: relative to hArg = 100%; 10 µM ACC substrate, 0.5 nM enzyme.
For experiment [2], the target named is T1, TgAPN2. The experiment in a line: TgAPN2 aminopeptidase activity under chelating conditions. The format is biochemical, Toxoplasma gondii ME49. As to conditions: increasing EDTA concentration (0–200 mM); 20 nM enzyme, 15 µM substrate.
The target of experiment [3] is T1, TgAPN2. Description: Michaelis-Menten kinetics of TgAPN2 with fluorogenic Mec substrates. The class given is biochemical, Toxoplasma gondii ME49. Conditions: substrate of TgAPN2, 20 nM enzyme, 37°C, pH 8.0.
A further experiment relates to recombinant TgAPN2. As to conditions: ref [14]; cited from earlier work.

`N=C(N)NCCC[C@H](N)C(=O)O` [Arg]: on TgAPN2 [1], the “normalised relative activity of TgAPN2 toward P1 substrate” value (from here on “normalised relative activity”) is recorded as 81%.
Consider `O=C(O)CN(CCN(CC(=O)O)CC(=O)O)CC(=O)O` [EDTA], for which the “effect on TgAPN2 enzyme velocity” value at TgAPN2 [2] is recorded as “reduction in enzyme velocity”.
Consider `Cc1cc(=O)oc2cc(NC(=O)[C@@H](N)CCCNC(=N)N)ccc12.Cl` [L-Arg-Mec, L-arginine-7-amido-4-methylcoumarin hydrochloride], for which, on TgAPN2 [3], the Km was found to be 148 ± 5.1 µM and the catalytic constant (kcat) was 1017 ± 15.2 s⁻¹. Moreover, the kcat on TgAPN2 [3] (listed as Arg-Mec) worked out at 1017 s⁻¹.
With `Cc1cc(=O)oc2cc(NC(=O)[C@@H](N)CC(C)C)ccc12.Cl` [L-Leu-Mec, L-leucine-7-amido-4-methylcoumarin hydrochloride], on TgAPN2 [3], the Km was found to be 31.8 ± 3 µM and the kcat turned out to be 1.32 ± 0.03 s⁻¹. The kcat on TgAPN2 [3] (listed as Leu-Mec) stood at 1.32 s⁻¹.
Turning to `CC(C)C[C@H](N)C(=O)O` [Leu], the “normalised relative activity” value on TgAPN2 [1] was 26%.
For `NCCCC[C@H](N)C(=O)O` [Lys], the “normalised relative activity” value on TgAPN2 [1] was 52%.
For `CC(C)C[C@@H](N)[C@H](O)C(=O)N[C@H](C(=O)N[C@H](C(=O)N[C@@H](CC(=O)O)C(=O)O)C(C)C)C(C)C` [amastatin], the “inhibition of recombinant TgAPN2 (in words)” value in the experiment with recombinant TgAPN2 is given as “inhibited”.
`CC(C)C[C@H](NC(=O)[C@@H](O)[C@H](N)Cc1ccccc1)C(=O)O` [bestatin]: the “inhibition of recombinant TgAPN2 (in words)” value with recombinant TgAPN2 was “inhibited”.
For the compound `NC(N)=NCCCC[C@H](N)C(=O)O` [hArg, Homo-arginine], at TgAPN2 [1], the “normalised relative activity” value came to 100%.
As for `N[C@@H](CCc1ccccc1)C(=O)O` [hPhe], at TgAPN2 [1], the “normalised relative activity” value is reported as 18%.
The same measure, in the same setting: the same measure for `N[C@@H](CCc1ccc(O)cc1)C(=O)O` [hTyr]: 54%.
